Source: US6407096B1, “Benzene fused heterocyclic derivatives having thromboxane A2 receptor antagonistic activity and prostaglandin I2 Agonistic activity and application thereof” (Toray Industries, Inc., priority 1998, dated 2002)
pIC50, pKi: −log10 of the molar value.

Columns and labels:
[1] = test system: platelet-rich plasma (PRP), platelet aggregation induced by TXA2 agonist U-46619; test: Platelet aggregation inhibiting action 1 (U-46619-induced aggregation in PRP); format: cell-based; details: human PRP, aggregation induced by U-46619 (final 1 to 4 μM), compound added 1 minute before
Method: (§1) The blood collected from the human medial cubital vein was centrifuged at 800 rpm for 10 minutes, and the upper portion was collected as platelet-rich plasma (PRP). PRP was dispensed to small test tubes, and TXA2 agonist U-46619 was added thereto (the final concentration 1 to 4 μM) to induce platelet aggregation. The degree of platelet aggregation was measured as a change in turbidity by a platelet aggregation measuring device (Hematracer 1, Nikko Bioscience). Each compound was added 1 minute before the addition of U-46619, and a concentration at which aggregation was 50% inhibited was calculated as a IC50 value.

[2] = test system: platelet-rich plasma (PRP), platelet aggregation induced by ADP; test: Platelet aggregation inhibiting action 2 (ADP-induced aggregation in PRP); format: cell-based; details: human PRP, aggregation induced by ADP (final 1 to 10 μM), compound added 1 minute before
Method: as §1, with “was centrifuged 800 rpm” for “was centrifuged at 800 rpm”, “tubes, and ADP was added” for “tubes, and TXA2 agonist U-46619 was added”, “1 to 10 μM) to” for “1 to 4 μM) to”, “addition of ADP, and a” for “addition of U-46619, and a”, “calculated as IC50 value.” for “calculated as a IC50 value.”

TXA2 receptor = target: T1, TXA2 receptor (Homo sapiens, UniProt P21731); test: TXA2 receptor binding test ([3H]SQ29548, platelet membrane fraction); details: [3H]SQ29548 10 nM, 25° C., 30 minutes, read-out: TXA2 receptor affinity Ki
T1 construct: The finally obtained sediment was used as a platelet membrane fraction; from tissue; host or cells: human platelets (membrane fraction from venous blood)
T1 sequence (P21731 1-343): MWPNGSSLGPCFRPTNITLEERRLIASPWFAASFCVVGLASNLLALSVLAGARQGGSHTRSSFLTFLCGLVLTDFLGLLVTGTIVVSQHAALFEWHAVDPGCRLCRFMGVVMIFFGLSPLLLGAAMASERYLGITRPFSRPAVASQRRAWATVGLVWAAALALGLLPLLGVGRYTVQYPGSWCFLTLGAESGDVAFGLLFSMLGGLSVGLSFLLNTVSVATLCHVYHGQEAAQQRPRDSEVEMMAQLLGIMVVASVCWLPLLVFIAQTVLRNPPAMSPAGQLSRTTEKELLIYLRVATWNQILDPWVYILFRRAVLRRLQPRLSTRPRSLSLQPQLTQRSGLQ
Method: The blood collected from the human antebrachial vein and 1/10 volume of ACD solution (85 mM trisodium citrate, 65 mM citric acid, 2% glucose) were mixed, and 8 ml of the mixture was dispensed to each of Spitz tubes. The platelet-rich plasma obtained by centrifugation at room temperature and 200×g for 10 minutes was further centrifuged at 1000×g for 15 minutes to obtain platelets. The thus-obtained platelets were centrifugally washed with a cleaning buffer (115 mM sodium chloride, 4.3 mM potassium dihydrogen phosphate, 5.5 mM glucose, 1 mM disodium EDTA, 10 μM […], pH 6.5), and 1 ml of a dissolution buffer (10 mM tris(hydroxymethyl)aminomethane, 5 mM magnesium chloride, 2 mM disodium EDTA, pH 7.4) was added to-the platelets, followed by three times of freezing in liquid nitrogen and melting at room temperature to crush the platelets. The crushed platelets were cleaned by three times of ultracentrifugation (40000×g, 20 minutes each) using […] ice-cold tris-hydrochloric acid buffer. The finally obtained sediment was used as a platelet membrane fraction.
As a TXA2 receptor ligand, tritium-labeled SQ29548 ([^3H]SQ29548) was used. As a solvent for receptor binding reaction, a 50 mM tris-hydrochloric acid buffer ([…] magnesium chloride, pH 7.4) was used. A saturation test was conducted by reaction of [^3H]SQ29548 (100 μl) at a final concentration of 3 to 100 nM and 0.1 mg protein/ml of platelet membrane fraction suspension (100 μl) at 25° C. for 30 minutes under shaking. […] Then, radioactivity was measured by a scintillation counter. Nonspecific binding to a substance other than the receptor was determined by reaction in the presence of SQ29548 at a final concentration of […]. In the competitive experiment, IC50 value and Hill coefficient of each of the test compounds were determined by pseudo-Hill plots, and the receptor dissociation constant (Ki value) was determined from the IC50 value and the receptor dissociation constant (Kd value) of [^3H]SQ29548, which was obtained by saturation experiment, according to the following equation: […]

PGI2 receptor = target: T2, PGI2 receptor (Homo sapiens, UniProt P43119); test: PGI2 receptor binding experiment (tritium-labeled compound A, platelet membrane fraction); details: tritium-labeled compound A 10 nM, 4° C., 60 minutes, read-out: PGI2 receptor affinity Ki
T2 construct: 0.1 mg protein/ml of platelet membrane fraction suspension (100 μl) at 4° C. for 60 minutes; from tissue; host or cells: platelets (membrane fraction)
T2 sequence (P43119 whole entry): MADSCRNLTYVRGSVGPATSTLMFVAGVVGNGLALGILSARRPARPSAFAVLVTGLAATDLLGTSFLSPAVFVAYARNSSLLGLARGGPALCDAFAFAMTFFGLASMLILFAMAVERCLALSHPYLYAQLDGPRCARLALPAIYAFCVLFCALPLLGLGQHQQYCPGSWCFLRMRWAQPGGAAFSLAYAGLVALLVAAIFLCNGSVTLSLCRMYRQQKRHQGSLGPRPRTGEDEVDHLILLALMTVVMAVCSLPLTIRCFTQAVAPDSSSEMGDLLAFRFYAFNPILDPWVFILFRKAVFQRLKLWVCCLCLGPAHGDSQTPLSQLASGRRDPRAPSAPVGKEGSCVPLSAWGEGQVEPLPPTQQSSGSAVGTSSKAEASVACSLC
Method: As a PGI2 receptor ligand, tritium-labeled (1R, 2R, 3aS, 8bS)-2,3,3a,8b-tetrahydro-2-hydroxy-1-[(E)-(3S, 4S)-3-hydroxy-4-methyl-1-octene-6-ynyl]-1H-cyclopenta [b]benzofuran-4-butanoic acid (compound A) was used. A saturation test was conducted by reaction of compound A (100 μl) at a final concentration of 3 to 100 nM and 0.1 mg protein/ml of platelet membrane fraction suspension (100 μl) at 4° C. for 60 minutes under shaking. Competitive experiment was carried out by reaction of a mixed solution (100 μl) of a test compound dissolved in an appropriate solvent and diluted and compound A at a final concentration of 10 nM, and 0.1 mg protein/ml of platelet membrane fraction suspension (100 μl) at 4° C. for 60 minutes under shaking. After the completion of reaction, the membrane fraction was recovered on a glass filter by a cell harvester, and washed with an ice-cold buffer. Then, radioactivity was measured by a scintillation counter. Nonspecific binding to a substance other than the receptor was determined by reaction in the presence of beraprost sodium at a final concentration of […]. In the competitive experiment, IC50 value and Hill coefficient of each of test compounds were determined by pseudo-Hill plots, and the receptor dissociation constant (Ki value) was determined from the IC50 value and the receptor dissociation constant (Kd value) of compound A, which was obtained by saturation experiment, according to the following equation:
Ki value=IC50 value/[1+(radioactive ligand concentration/Kd value)]

| melting point | Compound | pIC50 [1] | pIC50 [2] | pKi (TXA2 receptor) | pKi (PGI2 receptor) |
| --- | --- | --- | --- | --- | --- |
| 149 °C | CC(SCCN1CCOc2c(OCC(=O)O)cccc21)(c1ccsc1)c1ccsc1 [Example 27] | – | – | – | – |
| 138 to 139 °C | CC(CSCCN1CCOc2c(OCC(=O)O)cccc21)(c1ccccc1)c1ccccc1 [Example 26, (4-(2-(2,2-diphenylpropylthio)ethyl)-3,4-dihydro-2H-1,4-benzoxazin-8-yloxy)acetic acid] | – | – | – | – |
| 142 to 143 °C | CC(SCCN1CCOc2c(OCC(=O)O)cccc21)(c1ccc(F)cc1)c1ccc(F)cc1 [Example 23, (4-(2-(1,1-bis-(4-fluorophenyl)ethylthio)-ethyl)-3,4-dihydro-2H-1,4-benzoxazin-8-yloxy)acetic acid] | – | – | – | – |
| 232 to 234 °C | O=C(O)COc1cccc2c1OCC(=O)N2CC(=O)NC(c1ccccc1)c1ccccc1 [Example 32, (4-((diphenylmethylcarbamoyl)methyl)-3-oxo-3,4-dihydro-2H-1,4-benzoxazin-8-yloxy)acetic acid] | – | – | – | – |
| 114 °C | CC(C)(SCCN1CCOc2c(OCC(=O)O)cccc21)c1ccccc1 [Example 24, (4-(2-(1-methyl-1-phenylethylthio)ethyl)-3,4-dihydro-2H-1,4-benzoxazin-8-yloxy)acetic acid] | – | – | – | – |
| 127 to 131 °C | O=C(O)COc1cccc2c1OCCN2CCSCc1ccccc1 [Example 25, (4-(2-(benzylthio)ethyl)-3,4-dihydro-2H-1,4-benzoxazin-8-yloxy) acetic acid] | – | – | – | – |
| 110.1 °C | CC(SCCN1C(=O)COc2c(CCC(=O)O)cccc21)(c1ccccc1)c1ccccc1 [Example 33, 3-(4-(2-(1,1-diphenylethylthio)ethyl)-3-oxo-3,4-dihydro-2H-1,4-benzoxazin-8-yl)propionic acid] | – | – | – | – |
| 106 °C | CC(SCCN1C(=O)COc2c(OCC(=O)O)cccc21)(c1ccccc1)c1ccccc1 [Example 31, (4-(2-(1,1-diphenylethylthio)ethyl)-3-oxo-3,4-dihydro-2H-1,4-benzoxazin-8-yloxy)acetic acid] | – | – | – | – |

Second part, the compound before the results:

| Compound | melting point | pIC50 [1] | pIC50 [2] | pKi (TXA2 receptor) | pKi (PGI2 receptor) |
| --- | --- | --- | --- | --- | --- |
| CC(SCCC1COc2c(OCC(=O)O)cccc21)(c1ccccc1)c1ccccc1 (stereo not shown) [Example 37, (3-(2-(1,1-diphenylethylthio)ethyl)-2,3-dihydrobenzofuran-7-yloxy)acetic acid] | 65 to 67 °C | 6.31 | 5.74 | – | – |
| O=C(O)COc1cccc2c1OCCN2CCOC(c1ccccc1)c1ccccc1 [Example 28, (4-(2-(diphenylmethoxy)ethyl)-3,4-dihydro-2H-1,4-benzoxazin-8-yloxy)acetic acid] | 112 to 113 °C | 5.24 | 4.80 | – | – |
| COC(=O)COc1cccc2c1OCCN2CCSC(C)(c1ccccc1)c1ccccc1 [Example 2, Methyl (4-(2-(1,1-diphenylethylthio)ethyl)-3,4-dihydro-2H-1,4-benzoxazin-8-yloxy)acetate] | 101 °C | – | – | – | – |
| CC(SCCN1CCCc2c(OCC(=O)O)cccc21)(c1ccccc1)c1ccccc1 [Example 34, (1-(2-(1,1-diphenylethylthio)ethyl)-1,2,3,4-tetrahydroquinolin-5-yloxy)acetic acid] | 150.5 to 152 °C | 6.23 | 5.89 | 6.92 | 6.28 |
| O=C(O)COc1cccc2c1OCCN2CCSC(c1ccccc1)c1ccccc1 [Example 20, (4-(2-(diphenylmethylthio)ethyl)-3,4-dihydro-2H-1,4-benzoxazin-8-yloxy)acetic acid] | 172.5 °C | 5.89 | 5.70 | – | – |
| COC(=O)COc1cccc2c1OCC(=O)N2CC(=O)NC(c1ccccc1)c1ccccc1 [Example 12, Methyl (4-((diphenylmethylcarbamoyl)methyl)-3-oxo-3,4-dihydro-2H-1,4-benzoxazin-8-yloxy)acetate] | 183 to 184 °C | – | – | – | – |
| COC(=O)COc1cccc2c1OCCN2CCSC(c1ccccc1)c1ccccc1 | 94 to 95 °C | – | – | – | – |
| CC(OCCN1CCOc2c(OCC(=O)O)cccc21)(c1ccccc1)c1ccccc1 [Example 29, (4-(2-(1,1-diphenylethoxy)ethyl)-3,4-dihydro-2H-1,4-benzoxazin-8-yloxy)acetic acid] | 108 °C | 5.26 | 4.80 | – | – |
| CC(SCCN1CCOc2c(OCC(=O)O)cccc21)(c1ccccc1)c1ccccc1 [Example 21, (4-(2-(1,1-diphenylethylthio)ethyl)-3,4-dihydro-2H-1,4-benzoxazin-8-yloxy)acetic acid] | 161 to 161.5 °C | 6.26 | 5.74 | 7.30 | 6.37 |
| O=C(O)COc1cccc2c1OCCN2CCSC(c1ccccc1)(c1ccccc1)C(F)(F)F [Example 22, (4-(2-(1,1-diphenyl-2,2,2-trifluoroethylthio)ethyl)-3,4-dihydro-2H-1,4-benzoxazin-8-yloxy)acetic acid] | 140 to 140.5 °C | – | – | – | – |
| O=C(O)COc1cccc2c1OCC2CCSC(c1ccccc1)c1ccccc1 (stereo not shown) [Example 36, (3-(2-(diphenylmethylthio)ethyl)-2,3-dihydrobenzofuran-7-yloxy)acetic acid] | 88 to 89 °C | 6.26 | 6.02 | 7.15 | 6.64 |
| CC(SCCN1CCOc2c(OCC(=O)[O-])cccc21)(c1ccccc1)c1ccccc1.[Na+] | 110 °C | – | – | – | – |
